Assay results as given in patent publication US20190177440A1, “COMPOUND OR SALT THEREOF, ANTI-INFLAMMATORY AGENT, ANTI-CANCER AGENT AGAINST LUNG CANCER, METHOD OF PRODUCING COMPOUND OR SALTS THEREOF, METHOD OF TREATING INFLAMMATORY DISEASES AND METHOD OF TREATING LUNG CANCER” (TFK CO., LTD., priority 2016, published 2019).

System: NF-κB
Assay: Nuclear NF-κB level in RAW264.7 mouse macrophage cells (Example 4)
Format: cell-based
Settings: final 1 and 100 ng/mL, 24 hours pre-treatment, no LPSp, FIG. 4
Experimental: In the same manner as “(1) Preparation of test solution” in Example 3, a solution having a concentration of the purified product of 20,000 ng/mL was prepared, and the solution was serially diluted with a culture solution having the following composition, thereby obtaining two test solutions having 100 ng/mL and 10,000 ng/mL. Since the two test solutions are diluted 100-fold when added to the cells, the final concentrations of the purified product are 1 ng/mL and 100 ng/mL, respectively.
The culture medium was added to mouse macrophage cells (RAW264.7, ATCC) to prepare solutions at concentrations of 1.067×10^6 cells/mL. The solutions were seeded in 6 well plates in 3 mL portions, i.e., 3.2×10^6 cells/3 mL/well. After seeding, the test solution was incubated at 37° C. in a 5% CO2 for 2 hours, and 30 μL of the test solution was added to each well. After adding the test solution, the test solution was incubated at 37° C. in a 5% CO2 for 24 hours. The culture supernatant of each of the wells was then collected in a 15 mL tube. Then, 1 mL of the fresh culture solution was added to each of the wells, and after spreading over the entire well, the operation of collecting the culture solution into the 15 mL tube was repeated twice. Thereafter, the culture solution collected in the 15 mL tube was centrifuged at 1,000 rpm for 3 minutes, the supernatant was removed, and 3 mL of a new culture solution at 37° C. was added to suspend the culture solution, and centrifuged again under the same conditions. After centrifugation, the supernatant was removed, and 2 mL of the above-mentioned culture solution at 37° C. was added to the precipitate and suspended. Then, 2 mL of the suspension was added to each well to which 1 mL of a new culture medium had been added in advance. Thereafter, 30 μL of a new culture medium was added (hereinafter, this step is referred to as a “culture medium addition step”). After incubation at 37° C. in a 5% CO2 for 30 minutes, the culture supernatants of the wells were collected in 15-mL tubes, centrifuged at 1,000 rpm for 3 minutes, and the supernatants were removed by an aspirator. In addition, to the wells of the 6-well plate from which the culture supernatant was removed, 3 mL of cooled PBS (Phosphate buffered saline)/Phosphatase Inhibitors solution was added, the cells were removed by pipetting, and the cell suspension was added to the 15-mL tubes. The 15 mL tube was centrifuged at 1,000 rpm for 3 minutes, the supernatant was removed by an aspirator, and 0.5 mL of the cooled PB S/Phosphatase Inhibitors solution was added to the 15 mL tube and suspended to prepare a cell suspension. […]
The amount of NF-κB in the nucleoprotein was confirmed by measuring the absorbance using the Trans AM NF KB p65 kit (manufactured by Active Motif).

SMILES | amount of NF-κB in the nucleoprotein (absorbance)
CCCCCC/C=C/CCCCCC(=O)OC(CCCCCCCCCCC)CC(=O)NC1C(OCC2OC(OP(=O)(O)O)C(NC(=O)CC(=O)CCCCCCCCCCC)C(OC(=O)CC(O)CCCCCCC)C2O)OC(COC2(C(=O)O)CC(OC3(C(=O)O)CC(O)C(OC4OC(C(=O)O)C(OC5OC(CO)C(O)C(O)C5O)C(O)C4O)C(C(O)CO)O3)C(OC3OC(CO)C(O)C(O)C3O)C(C(O)CO)O2)C(OP(=O)(O)O)C1OC(=O)CC(O)CCCCCCC (stereo not shown) [Formula (B2)] | Equivalent results were obtained
CCCCCC/C=C/CCCCCC(=O)OC(CCCCCCCCCCC)CC(=O)NC1C(OCC2OC(OP(=O)(O)O)C(NC(=O)CC(=O)CCCCCCCCCCC)C(OC(=O)CC(O)CCCCCCC)C2O)OC(COC2(C(=O)O)CC(OC3(C(=O)O)CC(OC4OC(C(=O)O)C(OC5OC(CO)C(O)C(O)C5O)C(O)C4O)C(O)C(C(O)CO)O3)C(OC3OC(COP(=O)(O)O)C(OC4OC(CO)C(O)C(O)C4O)C(O)C3O)C(C(O)CO)O2)C(OP(=O)(O)O)C1OC(=O)CC(O)CCCCCCC (stereo not shown) [Formula (A1)] | Equivalent results were obtained
CCCCCC/C=C/CCCCCC(=O)OC(CCCCCCCCCCC)CC(=O)NC1C(OCC2OC(OP(=O)(O)O)C(NC(=O)CC(=O)CCCCCCCCCCC)C(OC(=O)CC(O)CCCCCCC)C2O)OC(COC2(C(=O)O)CC(OC3(C(=O)O)CC(OC4OC(C(=O)O)C(OC5OC(CO)C(O)C(O)C5O)C(O)C4O)C(O)C(C(O)CO)O3)C(OC3OC(CO)C(O)C(O)C3O)C(C(O)CO)O2)C(OP(=O)(O)O)C1OC(=O)CC(O)CCCCCCC (stereo not shown) [Formula (A2)] | Equivalent results were obtained
CCCCCC/C=C/CCCCCC(=O)OC(CCCCCCCCCCC)CC(=O)NC1C(OCC2OC(OP(=O)(O)O)C(NC(=O)CC(=O)CCCCCCCCCCC)C(OC(=O)CC(O)CCCCCCC)C2O)OC(COC2(C(=O)O)CC(OC3(C(=O)O)CC(O)C(OC4OC(C(=O)O)C(OC5OC(CO)C(O)C(O)C5O)C(O)C4O)C(C(O)CO)O3)C(OC3OC(COP(=O)(O)O)C(OC4OC(CO)C(O)C(O)C4O)C(O)C3O)C(C(O)CO)O2)C(OP(=O)(O)O)C1OC(=O)CC(O)CCCCCCC (stereo not shown) [Formula (B1)] | Equivalent results were obtained
